Measurements as given in patent US20230382920A1, “SHMT Inhibitors” (The Trustees of Princeton University, priority 2020, published 2023).

System: not listed separately
Test: Mouse liver microsome assay (metabolic stability)
Format: in vitro ADME
Settings: mouse liver microsomes, in vitro half-life
Procedure: Example 6. Mouse Liver Microsome Assay
Metabolic stability of several compounds in mouse liver microsomes was tested. Briefly, a master solution was prepared according to Table 31.
Two separate experiments were performed: an experiment with cofactors and an experiment without cofactors. In the experiment with cofactors 40 μL of 10 mM NADPH and 40 μL of 20 mM UDPGA were added to the incubations. The final concentrations of microsomes, NADPH and UDPGA were 0.5 mg/mL, 1 mM and 2 mM, respectively. In the experiment without cofactors 10 μL of 20 mg/mL liver microsomes and 80 μL of ultra-pure H2O were added to the incubations. The final concentration of microsomes was 0.5 mg/mL. The mixture was pre-warmed at 37° C. for 5 minutes.
The reaction was started with the addition of 4 μL of 200 μM control compound or test compound solutions. Verapamil was used as positive control in this study. The final concentration of test compound was 2 μM and the final concentration of control compound was 1 μM. The incubation solution was incubated in water bath at 37° C.
Aliquots of 50 μL were taken from the reaction solution at 0.5, 5, 15, 30, 45 and 60 minutes. The reaction was stopped by the addition of five volumes of cold acetonitrile with IS (100 nM alprazolam, 200 nM caffeine and 100 nM tolbutamide). Samples were centrifuged at 3,220 g for 40 minutes. Aliquot of 100 μL of the supernatant was mixed with 100 μL of ultra-pure H2O and then subject to LC-MS/MS analysis.
All calculations were carried out using Microsoft Excel. Peak areas were determined from extracted ion chromatograms. The slope value, k, was determined by linear regression of the natural logarithm of the remaining percentage of the parent drug versus incubation time curve. The in vitro half-life (in vitro t½) was determined from the slope value:
Conversion of the in vitro t1/2(min) into the in vitro intrinsic clearance (in vitro CLint, in μL/min/mg protein) was done using the following equation (mean of duplicate determinations): […]

| SMILES | half-life at 2 µM [min] |
| --- | --- |
| Cc1n[nH]c2c1C(c1cc(C#C[C@H]3C[C@H](C(C)(C)O)C3)cc(CO)c1)(C(C)C)C(C#N)=C(N)O2 (some centres unmarked) [KDG-0258] | < 5 |
| Cc1n[nH]c2c1C(c1cc(C#CC3(C)CN(C(=O)OC(C)(C)C)C3)cc(CO)c1)(C(C)C)C(C#N)=C(N)O2 (centres unmarked) [KDG-0300] | 5 to 10 |
| Cc1n[nH]c2c1C(c1cc(C#C[C@H]3C[C@H](C(=O)OC(C)(C)C)C3)cc(CO)c1)(C(C)C)C(C#N)=C(N)O2 (some centres unmarked) [KDG-0393] | < 5 |

Same assay, conditions: mouse liver microsomes, in vitro intrinsic clearance; read-out: Relative Clint

| SMILES | microsomal CLint at 2 µM [µL/min/mg] |
| --- | --- |
| Cc1n[nH]c2c1C(c1cc(C#C[C@H]3C[C@H](C(C)(C)O)C3)cc(CO)c1)(C(C)C)C(C#N)=C(N)O2 (some centres unmarked) [KDG-0258] | > 250 |
| Cc1n[nH]c2c1C(c1cc(C#CC3(C)CN(C(=O)OC(C)(C)C)C3)cc(CO)c1)(C(C)C)C(C#N)=C(N)O2 (centres unmarked) [KDG-0300] | > 250 |

System: HCT116
Test: HCT116 growth inhibition assay
Format: cell-based
Settings: without formate
Procedure: Example 5. HCT116 Growth Inhibition and Formate Rescue Assays
3,000 Cells were plated in each well of a 96-well plate with 80 μL of DMEM media supplemented with 10% dFBS, and incubated for 24 hours. Drugs with or without sodium formate (1 mM) were then added to each well to a final volume of 100 μL. Cell growth was measured as fluorescence intensity by resazurin after four days. In short, resazurin was added to each well to a final concentration of 10 μg·mL^−1. After incubation for one hour, fluorescence was measured by a Synergy HT plate reader (BioTek Instruments).

| SMILES | IC50 |
| --- | --- |
| Cc1n[nH]c2c1C(c1cc(C#C[C@H]3C[C@H](C(C)(C)O)C3)cc(CO)c1)(C(C)C)C(C#N)=C(N)O2 (some centres unmarked) [KDG-0258-100] | B″ |
| Cc1n[nH]c2c1C(c1cc(C#C[C@H]3C[C@H](C(C)(C)O)C3)cc(CO)c1)(C(C)C)C(C#N)=C(N)O2 (some centres unmarked) [KDG-0258] | A″ |
| Cc1n[nH]c2c1C(c1cc(C#C[C@H]3C[C@@H](CO)C3)cc(C(C)(C)O)c1)(C(C)C)C(C#N)=C(N)O2 (some centres unmarked) [KDG-0260-100] | D″ |
| Cc1n[nH]c2c1C(c1cc(C#C[C@H]3C[C@H](C(C)(C)O)C3)cc(C(C)(C)O)c1)(C(C)C)C(C#N)=C(N)O2 (some centres unmarked) [KDG-0261] | C″ |
| Cc1n[nH]c2c1C(c1cc(C#C[C@H]3C[C@@H](COC(N)=O)C3)cc(C(C)(C)O)c1)(C(C)C)C(C#N)=C(N)O2 (some centres unmarked) [KDG-0262-100] | C″ |
| Cc1n[nH]c2c1C(c1cc(C#C[C@H]3C[C@@H](C(=O)N(C)C)C3)cc(CO)c1)(C(C)C)C(C#N)=C(N)O2 (some centres unmarked) [KDG-0265-100] | B″ |
| CC(=O)OCC1CC(C#Cc2cc(CO)cc(C3(C(C)C)C(C#N)=C(N)Oc4[nH]nc(C)c43)c2)C1 (centres unmarked) [KDG-0266] | B″ |
| Cc1n[nH]c2c1C(c1cc(C#C[C@H]3C[C@@](C)(O)C3)cc(CO)c1)(C(C)C)C(C#N)=C(N)O2 (some centres unmarked) [KDG-0268] | C″ |
| CC(=O)O[C@]1(C)C[C@H](C#Cc2cc(CO)cc(C3(C(C)C)C(C#N)=C(N)Oc4[nH]nc(C)c43)c2)C1 (some centres unmarked) [KDG-0269] | B″ |
| Cc1n[nH]c2c1C(c1cc(C#CC3CCC(=O)CC3)cc(CO)c1)(C(C)C)C(C#N)=C(N)O2 (centres unmarked) [KDG-0270-100] | B″ |
| Cc1n[nH]c2c1C(c1cc(C#CC3CN(C(=O)OC(C)(C)C)C3)cc(CO)c1)(C(C)C)C(C#N)=C(N)O2 (centres unmarked) [KDG-0271-0-pk1] | A″ |
| Cc1n[nH]c2c1C(c1cc(C#CC3CN(C(=O)OC(C)(C)C)C3)cc(CO)c1)(C(C)C)C(C#N)=C(N)O2 (centres unmarked) [KDG-0271-0-pk2] | D″ |
| Cc1n[nH]c2c1C(c1cc(C#CC3CNC3)cc(CO)c1)(C(C)C)C(C#N)=C(N)O2 (centres unmarked) [KDG-0271-200] | D″ |
| CC(=O)O[C@]1(C)CC[C@H](C#Cc2cc(CO)cc(C3(C(C)C)C(C#N)=C(N)Oc4[nH]nc(C)c43)c2)CC1 (some centres unmarked) [KDG-0272] | A″ |
| COC(=O)N1CC(C#Cc2cc(CO)cc(C3(C(C)C)C(C#N)=C(N)Oc4[nH]nc(C)c43)c2)C1 (centres unmarked) [KDG-0281] | B″ |
| CC(=O)OCc1cc(C#CC2CN(C(=O)OC(C)(C)C)C2)cc(C2(C(C)C)C(C#N)=C(N)Oc3[nH]nc(C)c32)c1 (centres unmarked) [KDG-0284] | B″ |
| Cc1n[nH]c2c1C(c1cc(C#CC3CCN(C(=O)OC(C)(C)C)C3)cc(CO)c1)(C(C)C)C(C#N)=C(N)O2 (centres unmarked) [KDG-0287] | B″ |
| Cc1n[nH]c2c1C(c1cc(C#CC3CCCN(C(=O)OC(C)(C)C)C3)cc(CO)c1)(C(C)C)C(C#N)=C(N)O2 (centres unmarked) [KDG-0288] | C″ |
| Cc1n[nH]c2c1C(c1cc(C#CC3CN(C(=O)OC(C)(C)C)C3)cc(COC(=O)C(C)C)c1)(C(C)C)C(C#N)=C(N)O2 (centres unmarked) [KDG-0293] | A″ |
| Cc1n[nH]c2c1C(c1cc(C#CC3CN(C(=O)OC(C)(O)O)C3)cc(COC(=O)C(N)C(C)O)c1)(C(C)C)C(C#N)=C(N)O2 (centres unmarked) [KDG-0294] | B″ |
| Cc1n[nH]c2c1C(c1cc(C#CC3(C)CCN(C(=O)OC(C)(C)C)C3)cc(CO)c1)(C(C)C)C(C#N)=C(N)O2 (centres unmarked) [KDG-0304] | B″ |
| COC(=O)N1CCC(C)(C#Cc2cc(CO)cc(C3(C(C)C)C(C#N)=C(N)Oc4[nH]nc(C)c43)c2)CC1 (centres unmarked) [KDG-0308] | B″ |
| Cc1n[nH]c2c1C(c1cc(C#C[C@H]3C[C@@H](NC(=O)OC(C)(C)C)C3)cc(CF)c1)(C(C)C)C(C#N)=C(N)O2 (some centres unmarked) [KDG-0383] | B″ |
| Cc1n[nH]c2c1C(c1cc(C#C[C@H]3C[C@H](NC(=O)OC(C)(C)C)C3)cc(CO)c1)(C(C)C)C(C#N)=C(N)O2 (some centres unmarked) [KDG-0385, tert-butyl N-[(1r,3r)-3-[2-(3-[6-amino-5-cyano-4-isopropyl-3-methyl-1H-pyrano[2,3-c]pyrazol-4-yl]-5-(hydroxymethyl)phenyl)ethynyl]cyclobutyl]carbamate] | B″ |

| SMILES | IC50 |
| --- | --- |
| Cc1n[nH]c2c1C(c1cc(C#C[C@H]3C[C@](C)(NC(=O)OC(C)(C)C)C3)cc(CO)c1)(C(C)C)C(C#N)=C(N)O2 (some centres unmarked) [KDG-0387] | B″ |
| Cc1n[nH]c2c1C(c1cc(C#C[C@H]3C[C@H](NC(=O)OC(C)(C)C)C3)cc(CF)c1)(C(C)C)C(C#N)=C(N)O2 (some centres unmarked) [KDG-0390] | B″ |
| Cc1n[nH]c2c1C(c1cc(C#C[C@H]3C[C@@H](CNC(=O)OC(C)(C)C)C3)cc(CO)c1)(C(C)C)C(C#N)=C(N)O2 (some centres unmarked) [KDG-0395-100] | B″ |
| Cc1n[nH]c2c1C(c1cc(C#C[C@H]3C[C@H](CNC(=O)OC(C)(C)C)C3)cc(CO)c1)(C(C)C)C(C#N)=C(N)O2 (some centres unmarked) [KDG-0395] | B″ |
| CCC(C)(C)OC(=O)N1CC(C#Cc2cc(CO)cc(C3(C(C)C)C(C#N)=C(N)Oc4[nH]nc(C)c43)c2)C1 (centres unmarked) [KDG-0411] | B″ |
| Cc1n[nH]c2c1C(c1cc(C#CC3CN(C(=O)OC(C)C)C3)cc(CO)c1)(C(C)C)C(C#N)=C(N)O2 (centres unmarked) [KDG-0416] | A″ |
| COCC(C)(C)OC(=O)N1CC(C#Cc2cc(CO)cc(C3(C(C)C)C(C#N)=C(N)Oc4[nH]nc(C)c43)c2)C1 (centres unmarked) [KDG-0418] | B″ |
| Cc1nnc(N[C@H]2CC[C@@H](C#Cc3cc(CO)cc(C4(C(C)C)C(C#N)=C(N)Oc5[nH]nc(C)c54)c3)CC2)o1 (some centres unmarked) [KDG-0516] | C″ |
| Cc1nnc(N[C@H]2CC[C@H](C#Cc3cc(CO)cc(C4(C(C)C)C(C#N)=C(N)Oc5[nH]nc(C)c54)c3)CC2)o1 (some centres unmarked) [KDG-0518] | C″ |
| Cc1n[nH]c2c1C(c1cc(C#C[C@H]3C[C@@H](NC(=O)OC(C)C)C3)cc(CO)c1)(C(C)C)C(C#N)=C(N)O2 (some centres unmarked) [KDG-0520] | A″ |
| Cc1n[nH]c2c1C(c1cc(C#C[C@H]3C[C@@H](NC(=O)OCc4ccccc4)C3)cc(CO)c1)(C(C)C)C(C#N)=C(N)O2 (some centres unmarked) [KDG-0521] | A″ |
| COC(=O)N[C@H]1C[C@H](C#Cc2cc(CO)cc(C3(C(C)C)C(C#N)=C(N)Oc4[nH]nc(C)c43)c2)C1 (some centres unmarked) [KDG-0522-100] | B″ |
| COC(=O)N[C@H]1C[C@@H](C#Cc2cc(CO)cc(C3(C(C)C)C(C#N)=C(N)Oc4[nH]nc(C)c43)c2)C1 (some centres unmarked) [KDG-0522] | B″ |
| Cc1n[nH]c2c1C(c1cc(C#C[C@H]3C[C@@H](NC(=O)NC(C)(C)C)C3)cc(CO)c1)(C(C)C)C(C#N)=C(N)O2 (some centres unmarked) [KDG-0523] | B″ |
| Cc1n[nH]c2c1C(c1cc(C#C[C@H]3C[C@@H](NC(=O)OCC(C)(C)C)C3)cc(CO)c1)(C(C)C)C(C#N)=C(N)O2 (some centres unmarked) [KDG-0524] | B″ |
| Cc1n[nH]c2c1C(c1cc(C#C[C@H]3C[C@@H](NC(=O)C(C)(C)C)C3)cc(CO)c1)(C(C)C)C(C#N)=C(N)O2 (some centres unmarked) [KDG-0526] | B″ |
| Cc1n[nH]c2c1C(c1cc(C#C[C@H]3C[C@@H](NC(=O)CC(C)(C)C)C3)cc(CO)c1)(C(C)C)C(C#N)=C(N)O2 (some centres unmarked) [KDG-0527] | B″ |
| Cc1n[nH]c2c1C(c1cc(C#C[C@H]3C[C@@H](NCC(=O)N(C)C)C3)cc(CO)c1)(C(C)C)C(C#N)=C(N)O2 (some centres unmarked) [KDG-0530] | D″ |
| Cc1n[nH]c2c1C(c1cc(C#CC3CN(C(=O)CN(C)C)C3)cc(CO)c1)(C(C)C)C(C#N)=C(N)O2 (centres unmarked) [KDG-0547] | D″ |
| Cc1n[nH]c2c1C(c1cc(C#C[C@H]3C[C@@H](NC(=O)CN(C)C)C3)cc(CO)c1)(C(C)C)C(C#N)=C(N)O2 (some centres unmarked) [KDG-0554] | C″ |
| Cc1n[nH]c2c1C(c1cc(C#C[C@H]3C[C@H](NC(=O)CN(C)C)C3)cc(CO)c1)(C(C)C)C(C#N)=C(N)O2 (some centres unmarked) [KDG-0555] | C″ |
| Cc1n[nH]c2c1C(c1cc(C#CC34CC(C(=O)N(C)C)(C3)C4)cc(CO)c1)(C(C)C)C(C#N)=C(N)O2 (centres unmarked) [KDG-0558] | C″ |
| Cc1nnc(C23CC(C#Cc4cc(CO)cc(C5(C(C)C)C(C#N)=C(N)Oc6[nH]nc(C)c65)c4)(C2)C3)o1 (centres unmarked) [KDG-0573] | B″ |
| Cc1n[nH]c2c1C(c1cc(C#C[C@H]3C[C@@H](NC(=O)OC(C)(C)C)C3)cc(C(F)(F)F)c1)(C(C)C)C(C#N)=C(N)O2 (some centres unmarked) [KDG-0574] | B″ |
